Earlier results, collected in patent publication US20060210638A1, “Injectable compositions of nanoparticulate immunosuppressive compounds” (Elan Pharma International Limited, priority 2005, published 2006).
Like-named read-outs stand apart in the source and are kept apart here.

How the values were obtained:
[1] = in vitro studies
[2] = for mean time-to-peak concentration (Tmax): Rapamune Oral Solution
[3] = not given; remark: listed apart in the source
[4] = for reduction of mean AUC relative to fasted / reduction of mean Cmax relative to fasted: healthy volunteers (N=16)
[5] = reputed
[6] = for mean clearance: IV administration
[7] = not given; remark: listed apart in the source
[8] = 11 liver transplant patients, 15 minutes after high fat (400 kcal, 34% fat) breakfast
[9] = given immediately following the meal
[10] = high-carbohydrate meal (668 kcal, 85% carbohydrate)
[11] = high-fat meal (848 kcal, 46% fat), 15 healthy volunteers

C=CCC1C=C(C)CC(C)CC(OC)C2OC(O)(C(=O)C(=O)N3CCCCC3C(=O)OC(C(C)=CC3CCC(O)C(O)C3)C(C)C(O)CC1=O)C(C)CC2OC (stereo not shown) [31-demethyl metabolite]
activity relative to tacrolimus (in words) [1]: same activity as tacrolimus

CO[C@H]1C[C@@H]2CC[C@@H](C)[C@@](O)(O2)C(=O)C(=O)N2CCCC[C@H]2C(=O)O[C@H]([C@H](C)C[C@@H]2CC[C@@H](O)[C@H](OC)C2)CC(=O)[C@H](C)/C=C(\C)[C@@H](O)[C@@H](OC)C(=O)[C@H](C)C[C@H](C)/C=C/C=C/C=C/1C [Sirolimus, (3S,6R,7E,9R,10R,12R,14S,15E,17E,19E,21S,23S,26R,27R ,34aS)-9,10,12,13,14,21,22,23,24,25,26,27,32,33,34,34a-hexadecahydro-9,27-dihydroxy-3-[(1 R )-2-[(1S,3R,4R)-4-hydroxy-3-methoxycyclohexyl]-1-methylethyl]-10,21-dimethoxy-6,8,12,14,20,26-hexamethyl-23,27-epoxy-3H-pyrido[2,1-c] [1,4] oxaazacyclohentriacontine-1,5,11,28,29(4H,6H,31H)-pentone]
mean time-to-peak concentration (Tmax) ([2]; multiple oral doses, renal transplant recipients): approximately 2 hours
mean time-to-peak concentration (Tmax) ([2]; single dose, healthy subjects): approximately 1 hour
systemic availability ([2]; after Rapamune Oral Solution): approximately 14%
stability when exposed to water (in words) (aqueous medium): rapidly hydrolyzes
solubility in benzyl alcohol, chloroform, acetone, and acetonitrile (in words) (benzyl alcohol, chloroform, acetone, acetonitrile): freely soluble
solubility in water (water): 20 micrograms per mL
solubility in water (in words) (water): insoluble

C=CC[C@@H]1/C=C(\C)C[C@H](C)C[C@H](OC)[C@H]2O[C@@](O)(C(=O)C(=O)N3CCCC[C@H]3C(=O)O[C@H](/C(C)=C/[C@@H]3CC[C@@H](O)[C@H](OC)C3)[C@H](C)[C@@H](O)CC1=O)[C@H](C)C[C@@H]2OC [Tacrolimus]
ratio of whole blood concentration to plasma concentration, average ([3]; U.S. study): 35
plasma protein binding ([3]; independent of concentration over 5-50 ng/mL): approximately 99%
decreased AUC compared to fasted state [4, 8]: 27±18%
decreased Cmax compared to fasted state [4, 8]: 50±19%
reduction of mean AUC relative to fasted ([4]; 1.5 hours following the meal): 39%
reduction of mean Cmax relative to fasted ([4]; 1.5 hours following the meal): 63%
reduction of mean AUC relative to fasted [4, 9]: 39%
reduction of mean Cmax relative to fasted [4, 9]: 71%
decrease of mean AUC [4, 10]: 28%
decrease of mean Cmax [4, 10]: 65%
Tmax lengthened [4, 11]: 5 fold
decrease of mean AUC [4, 11]: 37%
decrease of mean Cmax [4, 11]: 77%
effectiveness relative to cyclosporine [5]: 100 times
correlation coefficient of trough concentration (Cmin) with AUC ([6]; 18 kidney transplant patients, trough 3 to 30 ng/mL at 10-12 hours post-dose): 0.93
correlation coefficient of trough concentration (Cmin) with AUC ([6]; 24 liver transplant patients, concentration range 10 to 60 ng/mL): 0.94
mean clearance ([6]; adult kidney transplant patients): 1.38 mL/min/kg
mean clearance ([6]; adult liver transplant patients): 0.883 mL/min/kg
mean clearance ([6]; healthy volunteers): 0.667 mL/min/kg
dose excreted unchanged in urine ([6]; in man): less than 1%
solubility in ethanol (in words) (ethanol): freely soluble
solubility in methanol and chloroform (in words) (methanol and chloroform): very soluble
solubility in water (in words) (water): practically insoluble
clearance of tacrolimus ([7]; IV): 0.483 ± 0.15 mL/min/kg
elimination half-life based on tacrolimus concentrations ([7]; IV): 43.5 ± 11.6 h
fecal elimination ([7]; IV): 92.4±1.0%
mean recovery of radiolabel ([7]; IV, 6 healthy volunteers): 77.8±12.7%
clearance of tacrolimus ([7]; oral): 2.87 ± 1.47 mL/min/kg
elimination half-life based on tacrolimus concentrations ([7]; oral): 48.4 ± 12.3 h
fecal elimination ([7]; oral): 92.6±30.7%
mean recovery of the radiolabel ([7]; oral): 94.9±30.7%
urinary elimination ([7]; oral): 2.3±1.1%
